In patent US20230132535A1, “PROLIFERATION SUPPRESSING AGENT FOR CANINE CANCER CELLS” (Japan Animal Referral Medical Center, priority 2020, published 2023):
Blank lines part the entries; values can stand above or below the compound they belong to.

Key:
[1] = system: V595E transitional epithelial cancer cells (TCCV-So strain); test: Cell proliferation suppressing test (WST 1), TCCV-So strain; type: cell-based, canine; settings: Canis lupus familiaris
Experimental: (§1) 1,000 to 3,000 established cell lines (TCCV-Ka, TCCV-So, TCCV-Ec, TCCV-Ni, and TCCV-Ic) per well were spread on 96 well culture plates and cultured for 24 hours, then 8 BRAF inhibiting agents (GDC0879, AZ628, PLX4720, Encorafenib, Vemurafenib, Dabrafenib, RAF265, and CEP32496) dissolved in 0.1% DMSO were added with GDC0879, AZ628, Vemurafenib, Dabrafenib, and RAF265 at 0, 50, 100, 500, 1000, 5000, and 10000 nM, PLX4720 at 0, 1, 10, 100, 1000, 5000, and 10000 nM, Encorafenib at 0, 32, 63, 125, 250, 500, and 1000 nM, CEP32496 at 0, 3, 10, 30, 100, 300, and 1000 nM, the number of surviving cells after 24, 48, and 72 hours was measured using WST 1, and the cell proliferation suppressing activity was calculated.
(§2) One example of the reaction curve of the BRAF inhibiting agent against canine V595E transitional epithelial cancer cells (TCC V-So strain) was shown in FIG. 1.

[2] = system: canine V595E transitional epithelial cancer cells (TCCV-Ka, TCCV-So, TCCV-Ec, TCCV-Ni, TCCV-Ic); test: Cell proliferation suppressing test (WST 1), five V595E transitional epithelial cancer established cell lines; type: cell-based
From the text: Using five canine V595E transitional epithelial cancer established cell lines, taken from clinical cases by the inventors so far and cloned in approximately 80 passages, the cell proliferation suppressing activity of eight human BRAF inhibiting agents (GDC0879, AZ628, PLX4720, Encorafenib, Vemurafenib, Dabrafenib, RAF265, and CEP32496), which are available and have high cell proliferation suppressing activity, was investigated. In addition, in the xenograft test system, suppression of tumor growth (anti-tumor activity) was measured and the anti-tumor activity was investigated.
as §1, with “calculated. […]” for “calculated.”

[3] = system: BRAFV595E transitional epithelial cancer cells (TCCV-Ka strain); test: Anti-tumor activity by a xenograft test system (TCCV-Ka strain in SCID mice); type: in vivo, SCID mouse; settings: 10 mg/kg intraperitoneally, 5 times/week, compared to control group, from day 5 of administration
Experimental: In order to observe the anti-tumor activity in the xenograft test system, it has been reported that the tumor growth depends on the number of cells inoculated, cell strains, and animal species. Then, five strains of V595E transitional epithelial cancer established cell lines, 1×10^6 and 1×10^7 cells/200 μl, were inoculated subcutaneously on the ventral side of SCID mouse (CB17/Icr-scid/scid. Jcl, CLEA Japan), and the formation of tumors was observed.
Using the TCCV-Ka strain as a graft cell, 1×10^7 cells were inoculated on the right ventral side of 5 SCID mice in each of the administration group and the control group. Two weeks later, a tumor of approximately 5×5 mm was formed. In the control group, 10% DMSO was administered intraperitoneally, and in the administration group, 200 μl of CEP32496 suspension solution (10 mg/kg) in 10% DMSO was administered intraperitoneally. The administration was 5 times/week.

TCCV-Ec strain = test: Cell proliferation suppressing test (WST 1), TCCV-Ec strain; type: cell-based, canine; settings: Canis lupus familiaris; TCCV-Ec strain only
Experimental: as §1, §2

TCCV-Ni strain = test: Cell proliferation suppressing test (WST 1), TCCV-Ni strain; type: cell-based, canine; settings: Canis lupus familiaris

IC50 [1]: 15 nM | IC50 ([2]; Canis lupus familiaris, all the cell strains used (5 strains)): 9 to 200 nM
Compound: COc1cc2ncnc(Oc3cccc(NC(=O)Nc4cc(C(C)(C)C(F)(F)F)on4)c3)c2cc1OC [CEP32496, 1-(3-((6,7-dimethoxyquinazolin-4-yl)oxy)phenyl)-3-(5-(1,1,1-trifluoro-2-methylpropan-2-yl)isoxazol-3-yl)urea]
proliferation suppressing activity compared to the other 7 BRAF inhibiting agents ([2]; 5 strains, FIG. 2): significantly higher activity | suppression of tumor formation (anti-tumor activity) [3]: significant suppression of tumor formation

Compound: COC(=O)N[C@@H](C)CNc1nccc(-c2cn(C(C)C)nc2-c2cc(Cl)cc(NS(C)(=O)=O)c2F)n1 [Encorafenib]
IC50 (TCCV-Ec strain): 180 nM

Compound: CCCS(=O)(=O)Nc1ccc(F)c(C(=O)c2c[nH]c3ncc(Cl)cc23)c1F [PLX4720]
IC50 (TCCV-Ec strain): 200 nM

Compound: Cn1c(Nc2ccc(C(F)(F)F)cc2)nc2cc(Oc3ccnc(-c4ncc(C(F)(F)F)[nH]4)c3)ccc21 [RAF265]
IC50 (TCCV-Ec strain): 150 nM

IC50 (TCCV-Ni strain): 1500 nM
Compound: CCCS(=O)(=O)Nc1ccc(F)c(C(=O)c2c[nH]c3ncc(-c4ccc(Cl)cc4)cc23)c1F [Vemurafenib]
